Assay results reported in BindingDB's records for doi:10.1021/jm00098a005 (Pfizer, 1992).

Key:
[1] = Compound was evaluated for binding affinity towards 5-hydroxytryptamine 1C receptor in pig choroid plexus using [3H]mesulergine as radioligand
[2] = Compound was evaluated for binding affinity towards 5-hydroxytryptamine 1D receptor in bovine caudate using [3H]- serotonin as radioligand

Row | Compound | IC50 [1] [µM] | IC50 [2] [µM]
1 | CN(C)CCc1c[nH]c2ccc3c(c12)CCCO3 | 0.15 | 0.22
2 | Cn1cc(CCN)c2c3c(ccc21)OCCC3 | 0.1 | 4.2
3 | CN(C)CCc1cn(C)c2ccc3c(c12)CCCO3 | 0.1 | 9.3
4 | NCCc1c[nH]c2ccc3c(c12)CCCO3 | 0.041 | 0.11
5 | CN(C)CCc1c[nH]c2cc3c(cc12)OCCC3 | 2.5 | –
